Laboratory results: US20240398811A1, “PRC2 INHIBITORS FOR USE IN TREATING BLOOD DISORDERS” (ORIC Pharmaceuticals, Inc., priority 2021, published 2024)

Assays:
[1] = tested on: HBG1 mRNA; experiment: HBG1 mRNA levels by RT-qPCR in differentiated CD34+ cells; assay type: cell-based, human; details: 7-day treatment
Source text: (§1) Cell Culture and differentiation protocol. Human bone marrow derived CD34+ cells from healthy donors were purchased from StemCell (#70002.2). The CD34+ cells were differentiated using the STEMdiff™ Erythroid kit (StemCell #100-0074) according to manufacturer's instructions. The CD34+ cells were differentiated for 14 days, and the differentiation medium consisted of StemSpan™ SFEM II media and 10% of STEMdiff™ Erythroid Supplement E2 (10×). The CD34+ cells were thawed and plated in a 12-well plate (Corning #3512) at a density of 40,000 cells/well in 1 mL of differentiation media. 100 μL of STEMdiff™ Erythroid Supplement E2 (10×) was added to each well on Day 2, 4, 9 and 11 during differentiation. On day 7, cells were passaged and replated at a density of 167,000 cells/well in a 12-well plate. Flow cytometry was performed every 7 days to assess the stages of differentiation using anti-human CD71 and anti-human glycophorin A (CD235a) antibody (StemCell #60106AZ; #60152FI).
(§2) Treatment of differentiated CD34+ cells with compound Example 32 or hydroxyurea (HU). After 14 days of differentiation, cells were plated in a 12-well plate at a density of 150,000 cells/well in 1 mL differentiation media in quadruplets. The next day, cells were treated with vehicle, 7 concentrations of compound Example 32 in concentrations ranging from 15.625 nM to 1 μM ([…] serial dilution) and 20 μM of HU. 100 μL of STEMdiff™ Erythroid Supplement E2 (10×) was added to each well on Day 2 and 4. Cells were treated with vehicle, compound Example 32, or HU for 7 days and were then harvested for RT-qPCR and flow cytometry.
(§3) RNA extraction and RT-qPCR analysis. The cell pellets harvested for mRNA analysis were first washed once with PBS and then resuspended in 600 μL of RLT lysis buffer (from the Qiagen kit) supplemented with 1% of beta-mercaptoethanol (Sigma-Aldrich #M6250). […] The extracted RNA was then quantified using a NanoDrop™ 8000 Spectrophotometer (ThermoFisher #ND8000-GL, software version 2.3.2). […]

[2] = tested on: HBG2 mRNA; experiment: HBG2 mRNA levels by RT-qPCR in differentiated CD34+ cells; assay type: cell-based, human; details: 7-day treatment
Source text: as §1, §2, §3

[3] = target: purified human, His-tagged PRC2 complex (Homo sapiens (Human), UniProt O75530); experiment: Hot Spot HMT assay, inhibition of PRC2 enzymatic activity; assay type: biochemical; details: 10 nM PRC2 complex, 1 μM 3H-SAM, core histone H3, 10-point dose-response
purified human, His-tagged PRC2 complex, sequence (O75530 whole entry): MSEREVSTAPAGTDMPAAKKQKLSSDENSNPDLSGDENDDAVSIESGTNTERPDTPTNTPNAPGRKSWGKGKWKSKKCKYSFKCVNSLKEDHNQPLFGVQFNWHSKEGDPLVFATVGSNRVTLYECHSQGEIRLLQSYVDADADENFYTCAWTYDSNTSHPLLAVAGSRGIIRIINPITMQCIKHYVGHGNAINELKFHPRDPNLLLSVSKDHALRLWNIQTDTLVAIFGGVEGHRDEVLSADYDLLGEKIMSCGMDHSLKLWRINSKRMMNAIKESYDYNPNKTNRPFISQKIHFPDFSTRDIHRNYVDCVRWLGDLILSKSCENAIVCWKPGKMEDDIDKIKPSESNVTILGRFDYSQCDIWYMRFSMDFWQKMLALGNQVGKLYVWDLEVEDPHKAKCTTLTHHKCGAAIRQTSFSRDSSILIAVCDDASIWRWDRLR
purified human, His-tagged PRC2 complex, sequence (Q15910 whole entry partner): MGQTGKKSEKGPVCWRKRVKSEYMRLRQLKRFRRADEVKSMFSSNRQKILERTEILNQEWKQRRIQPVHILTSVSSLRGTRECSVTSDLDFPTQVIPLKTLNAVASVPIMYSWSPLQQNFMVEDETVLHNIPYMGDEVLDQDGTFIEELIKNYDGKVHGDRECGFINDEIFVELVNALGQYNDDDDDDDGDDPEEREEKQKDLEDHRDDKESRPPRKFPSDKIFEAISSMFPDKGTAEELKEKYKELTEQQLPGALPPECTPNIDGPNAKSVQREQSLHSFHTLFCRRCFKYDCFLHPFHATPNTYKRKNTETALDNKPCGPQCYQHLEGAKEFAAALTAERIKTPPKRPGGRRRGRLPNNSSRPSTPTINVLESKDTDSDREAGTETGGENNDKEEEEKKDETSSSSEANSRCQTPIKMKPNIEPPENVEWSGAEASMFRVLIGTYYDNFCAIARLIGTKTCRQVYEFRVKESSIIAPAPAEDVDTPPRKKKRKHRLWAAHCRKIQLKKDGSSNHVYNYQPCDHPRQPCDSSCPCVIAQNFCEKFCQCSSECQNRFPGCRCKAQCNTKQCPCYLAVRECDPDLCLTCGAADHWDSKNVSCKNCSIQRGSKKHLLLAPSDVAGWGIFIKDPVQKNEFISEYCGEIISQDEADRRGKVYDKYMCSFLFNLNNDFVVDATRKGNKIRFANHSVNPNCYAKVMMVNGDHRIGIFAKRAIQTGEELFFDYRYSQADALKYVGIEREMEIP
purified human, His-tagged PRC2 complex, sequence (Q15022 whole entry partner): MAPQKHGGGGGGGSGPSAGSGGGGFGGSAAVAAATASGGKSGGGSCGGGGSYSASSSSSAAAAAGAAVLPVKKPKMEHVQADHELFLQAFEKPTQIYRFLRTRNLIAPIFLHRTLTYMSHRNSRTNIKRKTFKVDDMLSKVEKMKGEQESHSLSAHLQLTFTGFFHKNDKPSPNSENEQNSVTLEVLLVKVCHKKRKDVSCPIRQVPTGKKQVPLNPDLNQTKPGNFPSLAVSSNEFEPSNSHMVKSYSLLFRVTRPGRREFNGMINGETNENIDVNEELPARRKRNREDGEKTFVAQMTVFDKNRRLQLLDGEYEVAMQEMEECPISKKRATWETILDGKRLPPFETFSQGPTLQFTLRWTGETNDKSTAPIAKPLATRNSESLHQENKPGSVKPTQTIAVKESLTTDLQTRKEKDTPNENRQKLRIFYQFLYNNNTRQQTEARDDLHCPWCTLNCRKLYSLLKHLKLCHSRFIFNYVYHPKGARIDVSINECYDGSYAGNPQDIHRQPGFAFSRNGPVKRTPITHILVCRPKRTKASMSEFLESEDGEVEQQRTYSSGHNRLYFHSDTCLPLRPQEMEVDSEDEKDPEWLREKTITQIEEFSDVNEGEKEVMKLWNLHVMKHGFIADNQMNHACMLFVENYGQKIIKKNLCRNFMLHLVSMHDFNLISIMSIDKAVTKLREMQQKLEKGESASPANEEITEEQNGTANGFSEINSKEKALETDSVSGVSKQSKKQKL
purified human, His-tagged PRC2 complex, sequence (Q6ZN18 whole entry partner): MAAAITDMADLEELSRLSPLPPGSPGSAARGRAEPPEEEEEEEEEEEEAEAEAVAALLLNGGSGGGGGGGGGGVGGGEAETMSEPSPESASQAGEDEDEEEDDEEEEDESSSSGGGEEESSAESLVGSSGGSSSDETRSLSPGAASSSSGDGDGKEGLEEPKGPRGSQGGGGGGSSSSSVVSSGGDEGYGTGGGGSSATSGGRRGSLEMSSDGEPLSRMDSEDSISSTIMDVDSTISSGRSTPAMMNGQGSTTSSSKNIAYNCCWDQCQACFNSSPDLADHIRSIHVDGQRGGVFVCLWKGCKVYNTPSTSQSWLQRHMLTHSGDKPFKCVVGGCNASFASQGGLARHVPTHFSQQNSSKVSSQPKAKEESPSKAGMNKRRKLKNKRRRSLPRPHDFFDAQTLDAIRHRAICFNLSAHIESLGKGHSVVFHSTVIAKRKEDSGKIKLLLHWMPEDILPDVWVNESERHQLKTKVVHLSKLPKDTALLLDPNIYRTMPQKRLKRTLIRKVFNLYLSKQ
purified human, His-tagged PRC2 complex, sequence (Q09028 whole entry partner): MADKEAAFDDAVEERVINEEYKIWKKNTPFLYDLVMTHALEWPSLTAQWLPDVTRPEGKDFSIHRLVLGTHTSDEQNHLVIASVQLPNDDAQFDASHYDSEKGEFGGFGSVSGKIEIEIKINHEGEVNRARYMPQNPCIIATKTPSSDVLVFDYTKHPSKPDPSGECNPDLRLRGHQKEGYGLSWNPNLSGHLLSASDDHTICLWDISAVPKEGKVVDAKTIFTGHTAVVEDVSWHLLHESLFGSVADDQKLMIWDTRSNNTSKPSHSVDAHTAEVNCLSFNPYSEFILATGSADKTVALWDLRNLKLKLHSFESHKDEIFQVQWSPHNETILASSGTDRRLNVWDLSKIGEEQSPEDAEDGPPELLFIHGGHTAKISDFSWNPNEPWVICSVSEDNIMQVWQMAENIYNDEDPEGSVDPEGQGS
How it was run: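 Methyl transfer from 1 μM tritiated SAM onto 0.05 mg/ml core histone H3, catalysed by 10 nM His/Flag-tagged human PRC2 holoenzyme, was run 1 hr at 30° C after a 20 min compound preincubation. Serial dilutions began at 1.0 μM; product captured on filters and counted.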

[4] = tested on: bone marrow derived CD34+ cells differentiated into erythroid progenitor cells; experiment: Percentage of F cells (fetal hemoglobin containing cells) by flow cytometry in differentiated CD34+ cells; assay type: cell-based, human; details: 7-day treatment; for fold increase in % F cells: vs vehicle
Source text: as §1, §2
Flow Cytometry. The cell pellets harvested for flow cytometry analysis were collected in a V-shaped 96-well polypropylene plate (ThermoFisher #249944). The cells were washed with PBS and resuspended in 100 μL of PBS. The cells were first stained with eFluor 450 viability dye (diluted 1:250 in cold PBS; Invitrogen #65-0863-14) for 5 minutes on ice in the dark followed by incubation in Fc receptor blocking solution for 10 minutes (BioLegend #422302). […] Cells were washed twice and resuspended in FACS buffer and then analyzed by flow cytometry. Data was acquired using SONY SA3800 cytometer (software version 2.0.4.13263) and analyzed using FlowJo.
Bone marrow derived CD34+ cells from two healthy human donors (donor A and donor B) were differentiated into erythroid progenitor cells (erythroblasts) expressing Glycophorin A and CD71. Fourteen-day differentiated cells were then treated with vehicle (veh), different concentrations of compound Example 32, or 20 μM HU for 7 days and cells were analyzed for increase in fetal hemoglobin levels at both mRNA and protein levels. […]

[5] = Donor A, normalized to RPL27, relative to vehicle
[6] = Donor B, normalized to RPL27, relative to vehicle

Row | IC50 [3] [nM] | SMILES | further results
1 | 100 to 500 | Cc1cc(CN(C)C)ccc1-c1cnc(NCc2c(F)ccc3c2CCO3)n2cc(C#N)nc12 [Example 32] | fold increase in HBG1 mRNA levels [1, 5]: 4 fold; fold increase in HBG1 mRNA levels [1, 6]: 4 fold; fold increase in HBG2 mRNA levels [2, 5]: 9 fold; fold increase in HBG2 mRNA levels [2, 6]: 4 fold; % F cells (live cells with fetal hemoglobin) ([4]; donors A and B, 14-day differentiated cells): 30-40%; fold increase in % F cells ([4]; donors A and B, 14-day differentiated cells, 15.625 nM to 1 μM): 2.6-2.7 fold
2 | < 100 | N#Cc1cn2c(NCc3c(F)ccc4c3CCO4)ncc(-c3cc[nH]c(=O)c3)c2n1 [Example 218, 5-(((5-fluoro-2,3-dihydrobenzofuran-4-yl)methyl)amino)-8-(2-oxo-1,2-dihydropyridin-4-yl)imidazo[1,2-c]pyrimidine-2-carbonitrile] | 
3 | < 100 | N#Cc1cn2c(NCc3c(F)ccc4c3CCO4)ncc(-c3ccc([C@@H]4CCCN4)cc3)c2n1 [Example 219, (S)-5-(((5-fluoro-2,3-dihydrobenzofuran-4-yl)methyl)amino)-8-(4-(pyrrolidin-2-yl)phenyl)imidazo[1,2-c]pyrimidine-2-carbonitrile] | 
4 | 100 to 500 | N#Cc1cn2c(NCc3c(F)ccc4c3CCO4)ncc(-c3ccc([C@H]4CCCN4)cc3)c2n1 [Example 220, (R)-5-(((5-fluoro-2,3-dihydrobenzofuran-4-yl)methyl)amino)-8-(4-(pyrrolidin-2-yl)phenyl)imidazo[1,2-c]pyrimidine-2-carbonitrile] | 
5 | < 100 | CN1CCC1c1ccc(-c2cnc(NCc3c(F)ccc4c3CCO4)n3cc(C#N)nc23)cc1 (centres unmarked) [Example 221, 5-(((5-fluoro-2,3-dihydrobenzofuran-4-yl)methyl)amino)-8-(4-(1-methylazetidin-2-yl)phenyl)imidazo[1,2-c]pyrimidine-2-carbonitrile] | 
6 | < 100 | N#Cc1cn2c(NCc3c(F)ccc4c3CCO4)ncc(-c3ccc(C4CC(=O)N4)cc3)c2n1 (centres unmarked) [Example 222, 5-(((5-fluoro-2,3-dihydrobenzofuran-4-yl)methyl)amino)-8-(4-(4-oxoazetidin-2-yl)phenyl)imidazo[1,2-c]pyrimidine-2-carbonitrile] | 
7 | < 100 | [2H]C1Oc2ccc(F)c(C([2H])([2H])Nc3ncc(-c4ccc(CN(C)C)cc4C)c4nc(C#N)cn34)c2C1[2H] (centres unmarked) [Example 223, 8-(4-((dimethylamino)methyl)-2-methylphenyl)-5-(((5-fluoro-2,3-dihydrobenzofuran-4-yl-2,3-d2)methyl-d2)amino)imidazo[1,2-c]pyrimidine-2-carbonitrile] | 
8 | 100 to 500 | Cn1cc(-c2cnc(NCc3c(F)ccc4c3CCO4)n3cc(C#N)nc23)c(C#N)n1 [Example 224, 8-(3-cyano-1-methyl-1H-pyrazol-4-yl)-5-(((5-fluoro-2,3-dihydrobenzofuran-4-yl)methyl)amino)imidazo[1,2-c]pyrimidine-2-carbonitrile] | 
9 | < 100 | N#Cc1cn2c(NCc3c(F)ccc4c3CCO4)ncc(-c3ccc(C4COCCN4)cc3)c2n1 (centres unmarked) [Example 225, 5-(((5-fluoro-2,3-dihydrobenzofuran-4-yl)methyl)amino)-8-(4-(morpholin-3-yl)phenyl)imidazo[1,2-c]pyrimidine-2-carbonitrile] | 
10 | 100 to 500 | N#Cc1cn2c(NCc3c(F)ccc4c3CCO4)ncc(-c3ccc(C4CCN4)cc3)c2n1 (centres unmarked) [Example 226, 8-(4-(azetidin-2-yl)phenyl)-5-(((5-fluoro-2,3-dihydrobenzofuran-4-yl)methyl)amino)imidazo[1,2-c]pyrimidine-2-carbonitrile] | 
11 | < 100 | CN1CCOCC1c1ccc(-c2cnc(NCc3c(F)ccc4c3CCO4)n3cc(C#N)nc23)cc1 (centres unmarked) [Example 227, 5-(((5-fluoro-2,3-dihydrobenzofuran-4-yl)methyl)amino)-8-(4-(4-methylmorpholin-3-yl)phenyl)imidazo[1,2-c]pyrimidine-2-carbonitrile] | 
12 | < 100 | CN1CCN(C(=O)c2cc(-c3cnc(NCc4c(F)ccc5c4CCO5)n4cc(C#N)nc34)n(C)n2)CC1 [Example 229, 5-(((5-fluoro-2,3-dihydrobenzofuran-4-yl)methyl)amino)-8-(1-methyl-3-(4-methylpiperazine-1-carbonyl)-1H-pyrazol-5-yl)imidazo[1,2-c]pyrimidine-2-carbonitrile] | 
13 | < 100 | CN(C)CCn1nccc1-c1cnc(NCc2c(F)ccc3c2CCO3)n2cc(C#N)nc12 [Example 230, 8-(1-(2-(dimethylamino)ethyl)-1H-pyrazol-5-yl)-5-(((5-fluoro-2,3-dihydrobenzofuran-4-yl)methyl)amino)imidazo[1,2-c]pyrimidine-2-carbonitrile] | 
14 | 100 to 500 | N#Cc1cn2c(NCc3c(F)ccc4c3CCO4)ncc(-c3ccnn3CCO)c2n1 [Example 231, 5-(((5-fluoro-2,3-dihydrobenzofuran-4-yl)methyl)amino)-8-(1-(2-hydroxyethyl)-1H-pyrazol-5-yl)imidazo[1,2-c]pyrimidine-2-carbonitrile] | 
15 | 100 to 500 | N#Cc1cn2c(NCc3c(F)ccc4c3CCO4)ncc(-c3n[nH]cc3Br)c2n1 [Example 232, 8-(4-bromo-1H-pyrazol-3-yl)-5-(((5-fluoro-2,3-dihydrobenzofuran-4-yl)methyl)amino)imidazo[1,2c]pyrimidine-2-carbonitrile] | 
16 | < 100 | Cc1c(-c2cnc(NCc3c(F)ccc4c3CCO4)n3cc(C#N)nc23)cnc(CN(C)C)c1F [Example 233, 8-(6-((dimethylamino)methyl)-5-fluoro-4-methylpyridin-3-yl)-5-(((5-fluoro-2,3-dihydrobenzofuran-4-yl)methyl)amino)imidazo[1,2-c]pyrimidine-2-carbonitrile] | 
17 |  | NC(=O)NO [HU, hydroxyurea, reference compound] | fold increase in HBG1 mRNA levels ([1]; Donor B, 20 μM, relative to vehicle): 1.7 fold; fold increase in HBG2 mRNA levels ([2]; Donor A, 20 μM, relative to vehicle): 2.7 fold; fold increase in % F cells ([4]; Donor A, 20 μM): 1.9 fold; fold increase in % F cells ([4]; Donor B, 20 μM): 1.3 fold
